Experimental data: patent US20250221413A1, “Use and Preparation Method of Sulfoxamyl, and Oxidation System” (priority 2023, published 2025)
Values after ≈ are worked out from the molar mass of the structure shown. Values joined by “and” are separate entries in the source; they are usually repeats but may differ in a detail not shown here. Identical values can stand only once. Like-named read-outs stand apart in the source and are kept apart here.

Tests used:
[1] = system: Meloidogyne incognita eggs; assay: Inhibitory effect on hatching of Meloidogyne incognita eggs; type: in vivo; settings: 7 d
SD rats = assay: Acute oral toxicity test, single oral fixed-dose procedure; type: in vivo; settings: single oral dose 500 mg/kg
Protocol: Materials: the test agent 98% sulfoxamyl technical, batch number 20230708-1, was provided by Ningxia Hugerise Chemical Co., Ltd. Experimental animals: SPF-grade SD rats, half male and half female, weighing 180 g to 220 g, were provided by Jinan Pengyue Experimental Animal Breeding Co., Ltd., license number SCXK (Lu) 20190003. Rearing environment: the rats were housed in an SPF-grade animal room with free access to water and food, a temperature of 20° C. to 25° C., a humidity of 40% to 60%, and a 12 h/12 h light cycle. Feed: conventional pellet feed was provided by Jinan Pengyue Experimental Animal Breeding Co., Ltd.
The test was conducted in accordance with “Toxicological test methods of pesticides for registration, GB15670.5-2017”, “Acute toxicity test, GB15193.3-2003” and relevant acute toxicity research data.
Methods: a single oral fixed-dose procedure was conducted to preliminarily explore the toxic dose range of sulfoxamyl. LD50 and confidence limits were calculated by using the probability unit method (Bliss method). SD rats were randomly divided into 5 groups, 10 rats in each group, half of them were male and half were female. […] The common ratio value among each dose group was 0.75. After a single oral administration, the mortality rate of the experimental animals was recorded within 24 h and 14 days after administration, while the general condition of the animals was observed, and the food intake and body weight changes were recorded.

Meloidogyne incognita = assay: Indoor toxicity test against Meloidogyne incognita second-instar larvae (J2); settings: for LC50 / mortality at 50 µg/mL / mortality at 100 µg/mL / mortality at 400 µg/mL / mortality at 200 µg/mL / mortality at 25 µg/mL: Meloidogyne incognita
Protocol: Materials: the tested nematodes were collected from three different areas, namely cucumber crops in Dawenkou Town, Tai'an City, Shandong Province, and were all identified as southern root-knot nematodes (Meloidogyne incognita). The diseased roots were washed, cut into small sections of 0.5 cm to 1 cm, rinsed in 1% NaClO solution for about 30 s to 60 s, and rinsed with 200-mesh and 500-mesh sieves to collect nematode eggs for later use. The collected eggs were incubated at 25° C. using the Bayman funnel method and the second-instar larvae were collected 1 time per 24 h to ensure that the second-instar larvae selected each time were fresh and of consistent vitality.
The agent was 98% sulfoxamyl technical, and the comparison agents were 96% oxamyl technical and 87% fosthiazate technical.
The preparation for the agent was in accordance with the provisions for preparation of the liquid medicine in the Agricultural Industry Standard of the People's Republic of China NYT 1833.1-2009 “Guideline for laboratory bioassay of pesticides”, as shown in Table 6.
Methods: according to the experimental plan, the test agent was diluted to different mass concentrations, and 0.5 mL of the agent solution and 0.5 mL of the nematode solution (containing about 100 nematodes) were added into a 24-well cell culture plate. The treatment with each concentration of the agent was repeated 4 times, and auxiliary agent control and blank control were also conducted. […]

[2] = Meloidogyne incognita, 168 h, egg hatching

CNC(=O)O/N=C(\SC)C(=O)N(C)C [Oxamyl, N,N-dimethyl-2-[[[(methylamino)carbonyl]oxy]imino]-2-(methylthio)acetamide]
Number of hatched eggs/7 d ([1]; 25 mg/L): 81 and 92 and 90 | Number of unhatched eggs/7 d ([1]; 25 mg/L): 47 and 36 and 42 | Number of hatched eggs/7 d ([1]; 50 mg/L): 83 and 86 and 78 | Number of unhatched eggs/7 d ([1]; 50 mg/L): 53 and 52 | Number of hatched eggs/7 d ([1]; 100 mg/L): 62 and 72 and 71 | Number of unhatched eggs/7 d ([1]; 100 mg/L): 68 and 60 and 58 | Number of hatched eggs/7 d ([1]; 200 mg/L): 26 and 20 and 23 | Number of unhatched eggs/7 d ([1]; 200 mg/L): 97 and 101 and 103 | Number of hatched eggs/7 d ([1]; 400 mg/L): 12 and 15 and 11 | Number of unhatched eggs/7 d ([1]; 400 mg/L): 113 and 117 and 121 | IC50 [1, 2]: 91.6 µg/mL (≈ 418 µM) | IC90 [1, 2]: 480 µg/mL (≈ 2190 µM) | Death count (SD rats): 6/6 | Main clinical symptom (SD rats): All rats died within 5 min | Corrected mortality (Meloidogyne incognita; 25 mg/L, 24 h): 6.89% and 2.76% and 3.40% and 3.65% | Mortality (Meloidogyne incognita; 25 mg/L, 24 h): 8.04% and 3.96% and 4.59% and 4.84% | Corrected mortality (Meloidogyne incognita; 25 mg/L, 48 h): 12.13% and 16.63% and 6.92% and 6.73% | Death count (Meloidogyne incognita; 25 mg/L, 48 h): 15 and 18 and 9 and 10 | Mortality (Meloidogyne incognita; 25 mg/L, 48 h): 13.39% and 17.82% and 8.26% and 8.06% | Corrected mortality (Meloidogyne incognita; 25 mg/L, 72 h): 23.34% and 15.88% and 15.37% | Death count (Meloidogyne incognita; 25 mg/L, 72 h): 20 and 25 and 19 and 21 | Mortality (Meloidogyne incognita; 25 mg/L, 72 h): 24.75% and 17.43% and 16.94% | Corrected mortality (Meloidogyne incognita; 50 mg/L, 24 h): 29.73% and 26.88% and 16.90% | Mortality (Meloidogyne incognita; 50 mg/L, 24 h): 30.60% and 27.78% and 17.92% | Corrected mortality (Meloidogyne incognita; 50 mg/L, 48 h): 44.73% and 39.88% and 31.09% | Mortality (Meloidogyne incognita; 50 mg/L, 48 h): 45.52% and 40.74% and 32.08% | Corrected mortality (Meloidogyne incognita; 50 mg/L, 72 h): 55.90% and 59.44% and 45.22% | Death count (Meloidogyne incognita; 50 mg/L, 72 h): 41 and 76 and 65 and 49 | Mortality (Meloidogyne incognita; 50 mg/L, 72 h): 56.72% and 60.19% and 46.23% | Corrected mortality (Meloidogyne incognita; 100 mg/L, 24 h): 48.91% and 58.66% and 60.23% | Death count (Meloidogyne incognita; 100 mg/L, 24 h): 74 and 54 and 71 and 68 | Mortality (Meloidogyne incognita; 100 mg/L, 24 h): 49.54% and 59.17% and 60.71% | Corrected mortality (Meloidogyne incognita; 100 mg/L, 48 h): 76.73% and 76.33% and 80.98% | Death count (Meloidogyne incognita; 100 mg/L, 48 h): 90 and 84 and 92 and 91 | Mortality (Meloidogyne incognita; 100 mg/L, 48 h): 77.06% and 76.67% and 81.25% | Corrected mortality (Meloidogyne incognita; 100 mg/L, 72 h): 75.93% and 81.31% and 83.87% and 97.27% | Death count (Meloidogyne incognita; 100 mg/L, 72 h): 97 and 89 and 101 and 109 | Mortality (Meloidogyne incognita; 100 mg/L, 72 h): 76.38% and 81.65% and 84.17% and 97.32% | Corrected mortality (Meloidogyne incognita; 200 mg/L, 24 h): 69.90% and 86.37% and 84.57% and 94.67% | Death count (Meloidogyne incognita; 200 mg/L, 24 h): 78 and 90 and 89 | Mortality (Meloidogyne incognita; 200 mg/L, 24 h): 70.27% and 86.54% and 84.76% and 94.74% | Corrected mortality (Meloidogyne incognita; 200 mg/L, 48 h): 90.24% and 92.27% and 97.86% | Death count (Meloidogyne incognita; 200 mg/L, 48 h): 104 and 94 and 97 and 93 | Mortality (Meloidogyne incognita; 200 mg/L, 48 h): 90.38% and 92.38% and 97.89% | Corrected mortality (Meloidogyne incognita; 200 mg/L, 72 h): 94.12% and 94.18% and 98.93% | Death count (Meloidogyne incognita; 200 mg/L, 72 h): 108 and 98 and 99 and 94 | Mortality (Meloidogyne incognita; 200 mg/L, 72 h): 94.23% and 94.29% and 98.95% | Death count (Meloidogyne incognita; 400 mg/L, 24 h): 99 and 101 and 117 and 112 | Death count (Meloidogyne incognita; 400 mg/L, 48 h): 101 and 108 and 119 and 117 | Death count (Meloidogyne incognita; 400 mg/L, 72 h): 103 and 110 and 120 and 118 | LC90 (Meloidogyne incognita; 24 h): 273.89 µg/mL (≈ 1250 µM) | LC90 (Meloidogyne incognita; 48 h): 181.92 µg/mL (≈ 830 µM) | LC90 (Meloidogyne incognita; 72 h): 131.82 µg/mL (≈ 601 µM) | LC50 (Meloidogyne incognita; 24 h): 94.8 µg/mL (≈ 432 µM) | mortality at 50 µg/mL (Meloidogyne incognita; 24 h, 50 mg/L): 23.8% | mortality at 100 µg/mL (Meloidogyne incognita; 24 h, 100 mg/L): 58.3% | mortality at 400 µg/mL (Meloidogyne incognita; 24 h, 400 mg/L): 96.1% | mortality at 50 µg/mL (Meloidogyne incognita; 24 h, read-out: Corrected mortality, 50 mg/L, 24 h): 22.8% | mortality at 100 µg/mL (Meloidogyne incognita; 24 h, read-out: Corrected mortality, 100 mg/L, 24 h): 57.8% | mortality at 400 µg/mL (Meloidogyne incognita; 24 h, read-out: Corrected mortality, 400 mg/L, 24 h): 96.1% | LC50 (Meloidogyne incognita; 48 h): 64.4 µg/mL (≈ 294 µM) | mortality at 50 µg/mL (Meloidogyne incognita; 48 h, 50 mg/L): 29.7% | mortality at 100 µg/mL (Meloidogyne incognita; 48 h, 100 mg/L): 70.9% | mortality at 200 µg/mL (Meloidogyne incognita; 48 h, 200 mg/L): 93.7% | mortality at 400 µg/mL (Meloidogyne incognita; 48 h, 400 mg/L): 98.1% | mortality at 50 µg/mL (Meloidogyne incognita; 48 h, read-out: Corrected mortality, 50 mg/L, 48 h): 28.7% | mortality at 100 µg/mL (Meloidogyne incognita; 48 h, read-out: Corrected mortality, 100 mg/L, 48 h): 70.4% | mortality at 200 µg/mL (Meloidogyne incognita; 48 h, read-out: Corrected mortality, 200 mg/L, 48 h): 93.6% | mortality at 400 µg/mL (Meloidogyne incognita; 48 h, read-out: Corrected mortality, 400 mg/L, 48 h): 98% | LC50 (Meloidogyne incognita; 72 h): 49.6 µg/mL (≈ 226 µM) | mortality at 25 µg/mL (Meloidogyne incognita; 72 h, 25 mg/L): 17.9% | mortality at 50 µg/mL (Meloidogyne incognita; 72 h, 50 mg/L): 40.6% | mortality at 200 µg/mL (Meloidogyne incognita; 72 h, 200 mg/L): 97.3% | mortality at 400 µg/mL (Meloidogyne incognita; 72 h, 400 mg/L): 100% | mortality at 25 µg/mL (Meloidogyne incognita; 72 h, read-out: Corrected mortality, 25 mg/L, 72 h): 16.3% | mortality at 50 µg/mL (Meloidogyne incognita; 72 h, read-out: Corrected mortality, 50 mg/L, 72 h): 39.5% | mortality at 200 µg/mL (Meloidogyne incognita; 72 h, read-out: Corrected mortality, 200 mg/L, 72 h): 97.2% | mortality at 400 µg/mL (Meloidogyne incognita; 72 h, read-out: Corrected mortality, 400 mg/L, 72 h): 100%
